# Source: patent publication US9555022B2, “Substituted triazolopyridines” (Bayer Intellectual Property GmbH, priority 2010, dated 2017)
# Target: human full length recombinant Mps-1 kinase (Homo sapiens (Human), UniProt P33981)
# Test: Mps-1 Kinase Assay (TR-FRET)
# Assay type: biochemical
# Conditions: 10 μM ATP, 1 μM biotinylated peptide substrate, 60 min at 22° C., read-out: Mps-1 Inhibition, IC50 in M
# Procedure, shortened: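 GST-Mps-1 (full length, N-term tag) ~1 nM final, linear-range adjusted per lot; biotinylated peptide substrate. Detection: Eu-anti-pSer/Thr donor → SA-XLent acceptor TR-FRET, 1 h, 22° C. Inhibition of kinase activity.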
# Sequence of human full length recombinant Mps-1 kinase (P33981 whole entry): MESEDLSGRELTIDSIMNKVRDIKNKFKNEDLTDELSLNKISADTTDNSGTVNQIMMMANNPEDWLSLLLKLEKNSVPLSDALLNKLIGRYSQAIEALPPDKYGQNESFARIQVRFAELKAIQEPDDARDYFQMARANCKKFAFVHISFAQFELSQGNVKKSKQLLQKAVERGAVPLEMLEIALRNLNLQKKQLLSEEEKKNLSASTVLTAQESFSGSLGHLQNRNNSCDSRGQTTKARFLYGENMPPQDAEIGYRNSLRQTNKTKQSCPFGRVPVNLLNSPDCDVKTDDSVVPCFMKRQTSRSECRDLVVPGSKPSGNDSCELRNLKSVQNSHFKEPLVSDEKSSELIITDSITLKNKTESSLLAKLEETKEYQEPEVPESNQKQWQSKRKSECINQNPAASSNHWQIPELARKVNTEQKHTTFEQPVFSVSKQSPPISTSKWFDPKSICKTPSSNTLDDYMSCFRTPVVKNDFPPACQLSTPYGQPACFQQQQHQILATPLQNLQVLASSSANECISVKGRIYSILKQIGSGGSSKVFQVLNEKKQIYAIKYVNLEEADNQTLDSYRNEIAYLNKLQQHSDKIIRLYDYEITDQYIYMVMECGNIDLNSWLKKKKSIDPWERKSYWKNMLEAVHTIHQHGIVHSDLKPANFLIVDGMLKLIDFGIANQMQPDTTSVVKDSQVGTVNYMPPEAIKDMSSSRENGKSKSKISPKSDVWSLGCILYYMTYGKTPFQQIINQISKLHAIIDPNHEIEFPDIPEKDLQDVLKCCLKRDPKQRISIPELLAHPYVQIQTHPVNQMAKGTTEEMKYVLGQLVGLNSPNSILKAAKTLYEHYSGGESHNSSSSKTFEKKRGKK
row,SMILES,IC50 [nM]
1,"COc1cc(OC2CCN(C)CC2)ccc1Nc1nc2ccc(-c3ccc(C(=O)NCc4ccc(F)cc4)cc3)cn2n1 [Example 04.26, N-(4-fluorobenzyl)-4-[2-({2-methoxy-4-[(1-methylpiperidin-4-yl)oxy]phenyl}amino)[,2]triazolo[1,5-a]pyridin-6-yl]benzamide]",≤ 1
2,"CSc1cc(OC2CCN(C)CC2)ccc1Nc1nc2ccc(-c3ccc(C(=O)NCc4ccc(F)cc4)cc3)cn2n1 [Example 04.27, N-(4-fluorobenzyl)-4-[2-({4-[(1-methylpiperidin-4-yl)oxy]-2-(methylsulfanyl)phenyl}amino)[,2]triazolo[1,5-a]pyridin-6-yl]benzamide]",≤ 1
3,"Cc1cc(C(=O)N2CC3(COC3)C2)ccc1Nc1nc2ccc(-c3ccc(C(=O)NCc4ccc(F)cc4)cc3)cn2n1 [Example 04.28, N-(4-fluorobenzyl)-4-(2-{[2-methyl-4-(2-oxa-6-azaspiro[3.3]hept-6-ylcarbonyl)phenyl]amino}[,2]triazolo[1,5-a]pyridin-6-yl)benzamide]",≤ 1
4,"Cc1cc(C(=O)N2CCOCC2)ccc1Nc1nc2ccc(-c3ccc(C(=O)NCc4ccc(F)cc4)cc3)cn2n1 [Example 04.29, N-(4-fluorobenzyl)-4-(2-{[2-methyl-4-(morpholin-4-ylcarbonyl)phenyl]amino}[,2]-triazolo[1,5-a]pyridin-6-yl)benzamide]",≤ 1
5,"O=C(NCc1ccc(F)cc1)c1ccc(-c2ccc3nc(Nc4ccc(C(=O)N5CC6(COC6)C5)cc4OC(F)(F)F)nn3c2)cc1 [Example 04.30, N-(4-fluorobenzyl)-4-(2-{[4-(2-oxa-6-azaspiro[3.3]hept-6-ylcarbonyl)-2-(trifluoromethoxy)phenyl]amino}[,2]-triazolo[1,5-a]pyridin-6-yl)benzamide]",≤ 1
6,"O=C(NCc1ccc(F)cc1)c1ccc(-c2ccc3nc(Nc4ccc(C(=O)N5CCOCC5)cc4OC(F)(F)F)nn3c2)cc1 [Example 04.31, N-(4-fluorobenzyl)-4-(2-{[4-(morpholin-4-ylcarbonyl)-2-(trifluoromethoxy)phenyl]amino}[,2]-triazolo[1,5-a]pyridin-6-yl)benzamide]",≤ 1
7,"COc1ccc(C(=O)N2CCOCC2)cc1Nc1nc2ccc(-c3ccc(C(=O)NCc4ccc(F)cc4)cc3)cn2n1 [Example 04.32, N-(4-fluorobenzyl)-4-(2-{[2-methoxy-5-(morpholin-4-ylcarbonyl)phenyl]amino}[,2]-triazolo[1,5-a]pyridin-6-yl)benzamide]",≤ 1
8,"Cc1nc(N2CCOCC2)ccc1Nc1nc2ccc(-c3ccc(C(=O)NCc4ccc(F)cc4)cc3)cn2n1 [Example 04.33, N-(4-fluorobenzyl)-4-(2-{[2-methyl-6-(morpholin-4-yl)pyridin-3-yl]amino}[,2]triazolo[1,5-a]pyridin-6-yl)benzamide]",≤ 1
9,"Cc1nc(N2CCCC2)ccc1Nc1nc2ccc(-c3ccc(C(=O)NCc4ccc(F)cc4)cc3)cn2n1 [Example 04.34, N-(4-fluorobenzyl)-4-(2-{[2-methyl-6-(pyrrolidin-1-yl)pyridin-3-yl]amino}[,2]triazolo[1,5-a]pyridin-6-yl)benzamide]",≤ 1
10,"COc1cc(C(=O)N2CC(F)C2)ccc1Nc1nc2ccc(-c3ccc(C(=O)NCc4ccc(F)cc4)cc3)cn2n1 [Example 04.35, 4-[2-({4-[(3-fluoroazetidin-1-yl)carbonyl]-2-methoxyphenyl}amino)[,2]triazolo[1,5-a]pyridin-6-yl]-N-(4-fluorobenzyl)benzamide]",≤ 1
11,"COc1cc(C(=O)N2CCOCC2)ccc1Nc1nc2ccc(-c3ccc(C(=O)NCc4ccc(Cl)cc4)cc3)cn2n1 [Example 05.01, N-(4-chlorobenzyl)-4-(2-{[2-methoxy-4-(morpholin-4-ylcarbonyl)phenyl]amino}[,2]-triazolo[1,5-a]pyridin-6-yl)benzamide]",≤ 1
12,"COc1cc(C(=O)N2CCOCC2)ccc1Nc1nc2ccc(-c3ccc(C(=O)NCc4ccc(C)cc4)cc3)cn2n1 [Example 05.02, 4-(2-{[2-methoxy-4-(morpholin-4-ylcarbonyl)phenyl]amino}[,2]-triazolo[1,5-a]pyridin-6-yl)-N-(4-methylbenzyl)benzamide]",≤ 1
13,"COc1cc(C(=O)N2CCOCC2)ccc1Nc1nc2ccc(-c3ccc(C(=O)NCc4ccc(F)cc4)c(F)c3)cn2n1 [Example 06.01, 2-fluoro-N-(4-fluorobenzyl)-4-(2-{[2-methoxy-4-(morpholin-4-ylcarbonyl)phenyl]amino}[,2]-triazolo[1,5-a]pyridin-6-yl)benzamide]",≤ 1
14,"COc1cc(CN2CCOCC2)ccc1Nc1nc2ccc(-c3ccc(C(=O)NCc4ccc(F)cc4)c(F)c3)cn2n1 [Example 06.02, 2-fluoro-N-(4-fluorobenzyl)-4-(2-{[2-methoxy-4-(morpholin-4-ylmethyl)phenyl]amino}[,2]-triazolo[1,5-a]pyridin-6-yl)benzamide]",≤ 1
15,"COc1cc(C(=O)N2CCOCC2)ccc1Nc1nc2ccc(-c3ccc(C(=O)NCc4ccc(F)cc4)c(C)c3)cn2n1 [Example 07.01, N-(4-fluorobenzyl)-4-(2-{[2-methoxy-4-(morpholin-4-ylcarbonyl)phenyl]amino}[,2]-triazolo[1,5-a]pyridin-6-yl)-2-methylbenzamide]",≤ 1
16,"COc1cc(N2CCOC2=O)ccc1Nc1nc2ccc(-c3ccc(C(=O)NCc4ccc(F)cc4)c(C)c3)cn2n1 [Example 07.02, N-(4-fluorobenzyl)-4-(2-{[2-methoxy-4-(2-oxo-1,3-oxazolidin-3-yl)phenyl]amino}[,2]-triazolo[1,5-a]pyridin-6-yl)-2-methylbenzamide]",1.1
17,"COc1cc(C(=O)N2CCOCC2)ccc1Nc1nc2ccc(-c3ccc(C(=O)NCc4ccc(F)cc4)c(Cl)c3)cn2n1 [Example 08.01, 2-chloro-N-(4-fluorobenzyl)-4-(2-{[2-methoxy-4-(morpholin-4-ylcarbonyl)phenyl]amino}[,2]-triazolo[1,5-a]pyridin-6-yl)benzamide]",≤ 1
18,"COc1cc(C(=O)N2CCOCC2)ccc1Nc1nc2ccc(-c3ccc(C(=O)NCc4ccc(F)cc4)c(OC)c3)cn2n1 [Example 09.01, N-(4-fluorobenzyl)-2-methoxy-4-(2-{[2-methoxy-4-(morpholin-4-ylcarbonyl)phenyl]amino}[,2]-triazolo[1,5-a]pyridin-6-yl)benzamide]",≤ 1
19,"COc1cc(C(=O)N2CCOCC2)ccc1Nc1nc2ccc(-c3ccc(NC(=O)Cc4ccc(F)cc4)c(F)c3)cn2n1 [Example 10.01, N-[2-fluoro-4-(2-{[2-methoxy-4-(morpholin-4-ylcarbonyl)phenyl]amino}[,2]-triazolo[1,5-a]pyridin-6-yl)phenyl]-2-(4-fluorophenyl)acetamide]",≤ 1
20,"COc1cc(C(=O)N2CCOCC2)ccc1Nc1nc2ccc(-c3ccc(NC(=O)Cc4ccc(F)cc4)nc3)cn2n1 [Example 11.01, 2-(4-fluorophenyl)-N-[5-(2-{[2-methoxy-4-(morpholin-4-ylcarbonyl)phenyl]amino}[,2]triazolo[1,5-a]pyridin-6-yl)pyridin-2-yl]acetamide]",1.62
21,"CCOc1cc(C(=O)N2CCOCC2)ccc1Nc1nc2ccc(-c3ccc(NC(=O)Cc4ccc(F)cc4)nc3)cn2n1 [Example 11.02, N-[5-(2-{[2-ethoxy-4-(morpholin-4-ylcarbonyl)phenyl]amino}[,2]triazolo[1,5-a]pyridin-6-yl)pyridin-2-yl]-2-(4-fluorophenyl)acetamide]",≤ 1
22,"COc1cc(N2CCOC2=O)ccc1Nc1nc2ccc(-c3ccc(C(=O)NCc4ccc(F)cc4F)c(C)c3)cn2n1 [Example 12.01, N-(2,4-difluorobenzyl)-4-(2-{[2-methoxy-4-(2-oxo-1,3-oxazolidin-3-yl)phenyl]amino}[,2]triazolo[1,5-a]pyridin-6-yl)-2-methylbenzamide]",≤ 1
